For 11 compounds, viability and CC50 results are on record in paper PMC10780244, “Antileishmanial Effect of 1,5- and 1,8-Substituted Fused Naphthyridines” (Molecules, 2023).

The nature of one data set: Drug tolerance in murine intestinal organoids (alamarBlue). To be noted: Balb/c, mouse, murine intestinal organoids, 25 µM, 72 h exposure. The class given is cell-based, mouse. As to the method: Amastigotes obtained from mouse bone marrow cells were used to perform a first screening with the complete series of fused 1,5- and 1,8-naphthyridines. […] The toxicity of these selected compounds was assessed in non-infected splenic cells and the cytotoxic concentration (CC50) value obtained was used to calculate the selective index (SI). The oral tolerability of these same compounds was tested by calculating the viability of murine intestinal organoids exposed to two concentrations (50 and 25 µM).
Preparation and maintenance of murine intestinal organoids cultures were performed following the protocols published by Stemcell Technologies™ (https://www.stemcell.com/intestinal-epithelial-organoid-culture-with-intesticult-organoid-growth-medium-mouse-lp.html#protocols, accessed on 14 December 2023) with some modifications. Briefly, a section of small intestine from a Balb/c mouse was extracted and washed with ice-cold PBS. This section was cut into pieces around 2 mm each, washed 15–20 times with ice-cold PBS and incubated with Gentle Cell Dissociation Reagent (Stemcell Technologies™, Vancouver, BC, Canada) for 20 min. Then, the pieces were resuspended in ice-cold PBS with 0.1% BSA and left to settle at the bottom of the tube. The supernatant was collected and filtered through a 70 µm strainer. This process was repeated a total of four times obtaining different fractions. Cells from these fractions were centrifugated at 300× g for 5 min at 4 °C, washed with ice-cold PBS + 0.1% BSA and resuspended on 10 mL of ice-cold DMEM/F12 supplemented with glutamine and HEPES 15 mM (Gibco, Thermo Fisher Scientific, Waltham, MA, USA). After the evaluation under a microscope, the fraction with the highest crypt number but the lowest detritus presence was chosen. This fraction was centrifugated at 200× g for 5 min at 4 °C and the pellet was resuspended in a 1:1 mix of Geltrex GFR LDEV-free (Gibco, Fisher Scientific, Waltham, MA, USA) and IntestiCult™ Organoid Grow Medium Mouse (Stemcell Technologies™, Vancouver, BC, Canada). Fifty microliters of the suspension were pipetted into the middle of each well of a pre-heated 24-well plate and incubated at 37 °C for 10 min to allow polymerization of the matrix. In the end, 500 µL of IntestiCult™ Organoid Grow Medium was added to each well. The plates were incubated at 37 °C and 5% CO2, changing the culture medium every 48 h. Organoids were split 1 into 4 plates after 7 days.
Drug tolerance assays using murine intestinal organoids were performed in 384-well plates, following a protocol based on previous works and introducing several modifications. Briefly, organoids were prepared discarding the culture medium and adding 800 µL of Gentle Cell Dissociation Reagent (Stemcell Technologies™, Vancouver, BC, Canada) directly on top of matrix domes. After 1 min incubation at room temperature, the matrix was broken by pipetting, and the content of the wells was retrieved. The suspension was incubated at room temperature for 10 min on a rocking platform at 20 rpm, and centrifugated at 300× g for 5 min at 4 °C. The pellet was resuspended in 10 mL of ice-cold DMEM/F12 (Gibco, Fisher Scientific, Waltham, MA, USA) supplemented with glutamine and HEPES 15 mM and centrifugated again at 200× g for 5 min at 4 °C. Cells were resuspended in a 1:1 mix of Geltrex GFR LDEV-free and IntestiCult™ Organoid Grow Medium Mouse (Stemcell Technologies™, Vancouver, Canada). The final volume of the mix was calculated to achieve a 4-fold dilution in the final plate compared to the original plate. The mix was distributed in a 384-well plate (8 µL/well) which was incubated at 37 °C for 10 min. After that, 32 µL of IntestiCult™ Organoid Grow Medium Mouse (Stemcell Technologies™, Vancouver, Canada) were added to each well. The plate was incubated at 37 °C and 5% CO2 and after 4 days, mature organoids were exposed to drugs, alone or combined. For positive control, hydrogen peroxide at the final concentration of 0.15 % v/v was used. […]
In the case of `O=C1Oc2ccccc2C2Nc3ccc(Br)nc3[C@@H](c3ccccc3)C12` (stereo partly drawn) [Compound 6b], the viability at 72 h, 25 µM was determined as 72 ± 5%.

On to `COc1ccc2nc3c(c(-c4ccccc4)c2n1)c(=O)oc1ccccc13` [Compound 7c], for which the viability at 72 h, 25 µM is 99 ± 4%.

For the compound `Cc1ccc(S(=O)(=O)N2CC3C(Nc4cccnc4[C@H]3c3ccccc3)c3ccccc32)cc1` (stereo partly drawn) [Compound 8a], the viability at 72 h, 25 µM came out at 93 ± 7%.

Regarding `COc1ccc2c(n1)[C@@H](c1ccccc1)C1CN(S(=O)(=O)c3ccc(C)cc3)c3ccccc3C1N2` (stereo partly drawn) [Compound 8c], the viability at 72 h, 25 µM is over 100%.

As to `Cc1ccc(S(=O)(=O)N2CC3C(Nc4ccc(Br)nc4[C@H]3c3ccccc3)c3ccccc32)cc1` (stereo partly drawn) [Compound 8d], the viability at 72 h, 25 µM was 4 ± 1%.

The compound `Fc1ccc2c(c1)C1Nc3ncccc3[C@@H](c3ccccc3)C1CO2` (stereo partly drawn) [Compound 10b] gave a viability at 72 h, 25 µM of 99 ± 8%.

`c1ccc(-c2c3c(nc4ncccc24)-c2ccccc2OC3)cc1` [Compound 11a] returned a viability at 72 h, 25 µM of 92 ± 1%.

Regarding `O=c1oc2ccccc2c2nc3ncccc3c(-c3ccccc3)c12` [Compound 13a], the viability at 72 h, 25 µM stood at 87 ± 15%.

On to `O=c1oc2ccccc2c2nc3ncc(Br)cc3c(-c3ccccc3)c12` [Compound 13b], for which the viability at 72 h, 25 µM was 90 ± 5%.

In turn, `Cc1ccc(S(=O)(=O)N2CC3C(Nc4ncccc4C3c3ccccc3)c3ccccc32)cc1` (stereo not drawn) [Compound 14a] returned a viability at 72 h, 25 µM of 90 ± 9%.

The compound `Cc1ccc(S(=O)(=O)N2Cc3c(nc4ncc(Br)cc4c3-c3ccccc3)-c3ccccc32)cc1` [Compound 15b] showed a viability at 72 h, 25 µM of 58 ± 16%.

Staying with this data set, now noted: Balb/c, mouse, murine intestinal organoids, 50 µM, 72 h exposure.
For `O=C1Oc2ccccc2C2Nc3ccc(Br)nc3[C@@H](c3ccccc3)C12` (stereo partly drawn) [Compound 6b], the viability at 72 h, 50 µM was determined as 60 ± 7%.

With `COc1ccc2nc3c(c(-c4ccccc4)c2n1)c(=O)oc1ccccc13` [Compound 7c], the viability at 72 h, 50 µM came to 85 ± 13%.

Compound `Cc1ccc(S(=O)(=O)N2CC3C(Nc4cccnc4[C@H]3c3ccccc3)c3ccccc32)cc1` (stereo partly drawn) [Compound 8a] yielded a viability at 72 h, 50 µM of 89 ± 10%.

In turn, `COc1ccc2c(n1)[C@@H](c1ccccc1)C1CN(S(=O)(=O)c3ccc(C)cc3)c3ccccc3C1N2` (stereo partly drawn) [Compound 8c] returned a viability at 72 h, 50 µM of 100%.

Turning to `Cc1ccc(S(=O)(=O)N2CC3C(Nc4ccc(Br)nc4[C@H]3c3ccccc3)c3ccccc32)cc1` (stereo partly drawn) [Compound 8d], the viability at 72 h, 50 µM came to 3 ± 1%.

Regarding `Fc1ccc2c(c1)C1Nc3ncccc3[C@@H](c3ccccc3)C1CO2` (stereo partly drawn) [Compound 10b], the viability at 72 h, 50 µM stood at 90%.

In the case of `c1ccc(-c2c3c(nc4ncccc24)-c2ccccc2OC3)cc1` [Compound 11a], the viability at 72 h, 50 µM was 96 ± 1%.

Compound `O=c1oc2ccccc2c2nc3ncccc3c(-c3ccccc3)c12` [Compound 13a] returned a viability at 72 h, 50 µM of 53 ± 5%.

As to `O=c1oc2ccccc2c2nc3ncc(Br)cc3c(-c3ccccc3)c12` [Compound 13b], the viability at 72 h, 50 µM worked out at 61 ± 19%.

In turn, `Cc1ccc(S(=O)(=O)N2CC3C(Nc4ncccc4C3c3ccccc3)c3ccccc32)cc1` (stereo not drawn) [Compound 14a] gave a viability at 72 h, 50 µM of 56 ± 14%.

As for `Cc1ccc(S(=O)(=O)N2Cc3c(nc4ncc(Br)cc4c3-c3ccccc3)-c3ccccc32)cc1` [Compound 15b], the viability at 72 h, 50 µM was 13 ± 3%.

The nature of the next data set: Cytotoxicity in uninfected murine splenic cells (alamarBlue). The data set is classed as cell-based, mouse. To be noted: mouse; uninfected splenic cells, 72 h, alamarBlue; read-out: Mouse Splenic Macrophages CC50. As to the method:
Amastigotes obtained from mouse bone marrow cells were used to perform a first screening with the complete series of fused 1,5- and 1,8-naphthyridines. […] The toxicity of these selected compounds was assessed in non-infected splenic cells and the cytotoxic concentration (CC50) value obtained was used to calculate the selective index (SI). The oral tolerability of these same compounds was tested by calculating the viability of murine intestinal organoids exposed to two concentrations (50 and 25 µM). In order to assess the in vitro safety of the naphthyridines, cytotoxicity assays were carried out in ex vivo splenic explants from uninfected mice, which were prepared as previously described to obtain intramacrophagic amastigotes. Cells were seeded at a density of 1 × 10^6 cells per well in 96-well plates containing the prediluted compounds and incubated at 37 °C and 5% CO2 during 72 h. AlamarBlue assay (Invitrogen, Fisher Scientific, Waltham, MA, USA) was used to estimate cell viability following manufacturer’s recommendations. The assays were performed by triplicate. Absorbance of viable cells vs. compound concentrations were fitted by nonlinear analysis using the Sigma Plot 10.1 statistical package to calculate the cytotoxic concentration 50 (CC50) values. Selectivity index (SI) was calculated as the ratio between CC50 and the EC50 values of intramacrophagic amastigotes.
Consider `O=C1Oc2ccccc2C2Nc3ccc(Br)nc3[C@@H](c3ccccc3)C12` (stereo partly drawn) [Compound 6b], for which the CC50 at 72 h is 55.7 ± 6.42 µM.

In the case of `COc1ccc2nc3c(c(-c4ccccc4)c2n1)c(=O)oc1ccccc13` [Compound 7c], the 50% cytotoxic concentration (CC50) at 72 h came to 97.7 ± 1.77 µM.

On to `Cc1ccc(S(=O)(=O)N2CC3C(Nc4cccnc4[C@H]3c3ccccc3)c3ccccc32)cc1` (stereo partly drawn) [Compound 8a], for which the 50% cytotoxic concentration (CC50) at 72 h turned out to be 45 ± 3.91 µM.

Consider `COc1ccc2c(n1)[C@@H](c1ccccc1)C1CN(S(=O)(=O)c3ccc(C)cc3)c3ccccc3C1N2` (stereo partly drawn) [Compound 8c], for which the cytotoxic concentration (CC50) at 72 h is over 100 µM.

Turning to `Cc1ccc(S(=O)(=O)N2CC3C(Nc4ccc(Br)nc4[C@H]3c3ccccc3)c3ccccc32)cc1` (stereo partly drawn) [Compound 8d], the cytotoxic concentration (CC50) at 72 h is over 50 µM.

For the compound `Fc1ccc2c(c1)C1Nc3ncccc3[C@@H](c3ccccc3)C1CO2` (stereo partly drawn) [Compound 10b], the 50% cytotoxic concentration (CC50) at 72 h amounted to 50.7 ± 0.99 µM.

For `c1ccc(-c2c3c(nc4ncccc24)-c2ccccc2OC3)cc1` [Compound 11a], the CC50 at 72 h is over 100 µM.

For the compound `O=c1oc2ccccc2c2nc3ncccc3c(-c3ccccc3)c12` [Compound 13a], the CC50 at 72 h stood at 34.6 ± 1.79 µM.

In the case of `O=c1oc2ccccc2c2nc3ncc(Br)cc3c(-c3ccccc3)c12` [Compound 13b], the CC50 at 72 h is over 50 µM.

With `Cc1ccc(S(=O)(=O)N2CC3C(Nc4ncccc4C3c3ccccc3)c3ccccc32)cc1` (stereo not drawn) [Compound 14a], the CC50 at 72 h is 27.2 ± 1.55 µM.

For the compound `Cc1ccc(S(=O)(=O)N2Cc3c(nc4ncc(Br)cc4c3-c3ccccc3)-c3ccccc32)cc1` [Compound 15b], the CC50 at 72 h is 24.6 ± 3.59 µM.
